In patent US9221834B2 (Merck Sharp & Dohme Corp., priority 2010, dated 2015) one finds IC50 data, which are given here for 40 compounds.

What is called IC50 is the midpoint of a concentration-inhibition curve.

The assay deals with T1, recombinant CETP (rCETP) (Homo sapiens, UniProt P11597).
T1 sequence (P11597 18-493): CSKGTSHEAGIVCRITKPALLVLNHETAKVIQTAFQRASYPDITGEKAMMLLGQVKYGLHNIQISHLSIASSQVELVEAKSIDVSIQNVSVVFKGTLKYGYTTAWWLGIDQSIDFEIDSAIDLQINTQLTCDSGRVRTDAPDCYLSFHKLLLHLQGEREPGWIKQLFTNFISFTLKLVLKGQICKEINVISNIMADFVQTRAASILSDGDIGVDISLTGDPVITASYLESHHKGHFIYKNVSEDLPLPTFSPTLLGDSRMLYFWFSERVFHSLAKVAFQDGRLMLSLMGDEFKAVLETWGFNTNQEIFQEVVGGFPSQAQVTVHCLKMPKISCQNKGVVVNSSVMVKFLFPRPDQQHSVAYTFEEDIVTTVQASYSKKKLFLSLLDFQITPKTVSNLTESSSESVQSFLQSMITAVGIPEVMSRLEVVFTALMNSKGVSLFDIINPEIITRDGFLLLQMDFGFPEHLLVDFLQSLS
Briefly: RTA assay using recombinant CETP (2% RTA). Format: biochemical. Particulars: RTA assay in 2% human serum; read-out: IC50. In short, it runs like this: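 Compounds preincubated 1 h at 37 °C with assay cocktail (CETP buffer: 50 mM Tris pH 7.4, 100 mM NaCl, 1 mM EDTA; human HDL acceptor); transfer started with [3H]cholesteryl oleate- or [3H]triolein-labelled LDL, 60 min at 37 °C. LDL PEG-precipitated; supernatant counted by scintillation, blank-corrected; IC50 from 4-parameter sigmoidal fit of % inhibition vs DMSO control.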

As for `COC(=O)[C@H]1CC[C@H](c2ccc(Cl)c(-c3cnc(N4CCC4)nc3CN3C(=O)O[C@H](c4cc(C(F)(F)F)cc(C(F)(F)F)c4)[C@@H]3C)c2)CC1` [Example 146], the half-inhibitory concentration (IC50) was 0.16 µM.

As for `COC(=O)[C@H]1CC[C@H](c2ccc(Cl)c(-c3cnc(N4CC(F)(F)C4)nc3CN3C(=O)O[C@H](c4cc(C(F)(F)F)cc(C(F)(F)F)c4)[C@@H]3C)c2)CC1` [Example 147], the IC50 was determined as 0.094 µM.

For `COc1cc(F)c(-c2ccc(C(=O)O)cc2C)cc1-c1cnc(N2CC(F)C2)nc1CN1C(=O)O[C@H](c2cc(C(F)(F)F)cc(C(F)(F)F)c2)[C@@H]1C` [Example 152, 5′-[4-({(4S,5R)-5-[3,5-bis(trifluoromethyl)phenyl]-4-methyl-2-oxo-1,3-oxazolidin-3-yl}methyl)-2-(3-fluoroazetidin-1-yl)pyrimidin-5-yl]-2′-fluoro-4′-methoxy-2-methylbiphen-4-carboxylic acid], the IC50 came out at 0.01 µM.

As to `COc1ccc(C2C[C@H]2C(=O)O)cc1-c1cnc(N2CCC2)nc1CN1C(=O)O[C@H](c2cc(C(F)(F)F)cc(C(F)(F)F)c2)[C@@H]1C` (stereo partly shown) [Example 153], the IC50 amounted to 0.053 µM.

As for `COc1ccc([C@H]2CC[C@H](C(=O)O)CC2)cc1-c1cnc(N2CCC2)nc1CN1C(=O)O[C@H](c2cc(C(F)(F)F)cc(C(F)(F)F)c2)[C@@H]1C` [Example 154], the IC50 stood at 0.027 µM.

With `COc1cc2c(cc1-c1cnc(N3CCC3)nc1CN1C(=O)O[C@H](c3cc(C(F)(F)F)cc(C(F)(F)F)c3)[C@@H]1C)[C@H](CC(=O)O)CC2` [Example 155], the IC50 came to 0.04 µM.

With `COc1ccc(CC(C)(C)C(=O)O)cc1-c1cnc(N2CCC2)nc1CN1C(=O)O[C@H](c2cc(C(F)(F)F)cc(C(F)(F)F)c2)[C@@H]1C` [Example 156], the IC50 was 0.042 µM.

As to `COc1ccc([C@H]2CC[C@H](C(=O)O)CC2)cc1-c1cnc(N2CC(F)(F)C2)nc1CN1C(=O)O[C@H](c2cc(C(F)(F)F)cc(C(F)(F)F)c2)[C@@H]1C` [Example 157], the IC50 was 0.01 µM.

For the compound `COc1ccc(C2C[C@H]2C(=O)O)cc1-c1cnc(N2CC(F)(F)C2)nc1CN1C(=O)O[C@H](c2cc(C(F)(F)F)cc(C(F)(F)F)c2)[C@@H]1C` (stereo partly shown) [Example 158], the half-maximal inhibitory concentration (IC50) turned out to be 0.021 µM.

Turning to `COc1cc2c(cc1-c1cnc(N3CC(F)(F)C3)nc1CN1C(=O)O[C@H](c3cc(C(F)(F)F)cc(C(F)(F)F)c3)[C@@H]1C)[C@H](CC(=O)O)CC2` [Example 159], the concentration for half-maximal inhibition (IC50) was 0.055 µM.

Regarding `COc1ccc(-c2ccc(C(=O)O)cc2C)cc1-c1cnc(N2CC(F)(F)C2)nc1CN1C(=O)O[C@H](c2cc(C(F)(F)F)cc(C(F)(F)F)c2)[C@@H]1C` [Example 160], the IC50 was found to be 0.009 µM.

Turning to `COc1cc(F)c(-c2ccc(C(=O)O)cc2C)cc1-c1cnc(N2CC(F)(F)C2)nc1CN1C(=O)O[C@H](c2cc(C(F)(F)F)cc(C(F)(F)F)c2)[C@@H]1C` [Example 161], the 50% inhibitory concentration (IC50) worked out at 0.007 µM.

As for `CCc1ccc(-c2ccc(C(=O)O)cc2C)cc1-c1cnc(N2CC(F)(F)C2)nc1CN1C(=O)O[C@H](c2cc(C(F)(F)F)cc(C(F)(F)F)c2)[C@@H]1C` [Example 162], the 50% inhibitory concentration (IC50) turned out to be 0.006 µM.

With `COc1ccc(C2C[C@@H]2C(=O)O)cc1-c1cnc(N2CC(F)(F)C2)nc1CN1C(=O)O[C@H](c2cc(C(F)(F)F)cc(C(F)(F)F)c2)[C@@H]1C` (stereo partly shown) [Example 163], the 50% inhibitory concentration (IC50) stood at 0.014 µM.

Take `COc1ccc(-c2ccc(C(=O)O)cc2C)cc1-c1cnc(N2CC(OC)C2)nc1CN1C(=O)O[C@H](c2cc(C(F)(F)F)cc(C(F)(F)F)c2)[C@@H]1C` [Example 164]: the concentration for half-maximal inhibition (IC50) is 0.016 µM.

Turning to `COc1cc(F)c(-c2ccc(C(=O)O)cc2C)cc1-c1cnc(N2CC(OC)C2)nc1CN1C(=O)O[C@H](c2cc(C(F)(F)F)cc(C(F)(F)F)c2)[C@@H]1C` [Example 165], the IC50 amounted to 0.011 µM.

With `CCc1ccc(-c2ccc(C(=O)O)cc2C)cc1-c1cnc(N2CC(OC)C2)nc1CN1C(=O)O[C@H](c2cc(C(F)(F)F)cc(C(F)(F)F)c2)[C@@H]1C` [Example 166], the concentration for half-maximal inhibition (IC50) is 0.046 µM.

With `COC1CN(c2ncc(-c3cc([C@H]4CC[C@H](C(=O)O)CC4)ccc3Cl)c(CN3C(=O)O[C@H](c4cc(C(F)(F)F)cc(C(F)(F)F)c4)[C@@H]3C)n2)C1` [Example 167], the half-inhibitory concentration (IC50) was found to be 0.771 µM.

Regarding `COc1ccc(CCC(=O)O)cc1-c1cnc(N2CCC2)nc1CN1C(=O)O[C@H](c2cc(C(F)(F)F)cc(C(F)(F)F)c2)[C@@H]1C` [Example 171], the IC50 turned out to be 0.06 µM.

With `COc1ccc(CCC(=O)O)cc1-c1cnc(N2CC(F)C2)nc1CN1C(=O)O[C@H](c2cc(C(F)(F)F)cc(C(F)(F)F)c2)[C@@H]1C` [Example 172], the concentration for half-maximal inhibition (IC50) was 0.035 µM.

`C[C@H]1[C@@H](c2cc(C(F)(F)F)cc(C(F)(F)F)c2)OC(=O)N1Cc1nc(N2CCC2)ncc1-c1cc([C@H]2CC[C@H](C(=O)O)CC2)ccc1Cl` [Example 173]: the concentration for half-maximal inhibition (IC50) is 0.021 µM.

Consider `COc1ccc(CCC(=O)O)cc1-c1cnc(N2CC(F)(F)C2)nc1CN1C(=O)O[C@H](c2cc(C(F)(F)F)cc(C(F)(F)F)c2)[C@@H]1C` [Example 174], for which the IC50 amounted to 0.018 µM.

Take `COc1ccc(C(C)(C)CC(=O)O)cc1-c1cnc(N2CCC2)nc1CN1C(=O)O[C@H](c2cc(C(F)(F)F)cc(C(F)(F)F)c2)[C@@H]1C` [Example 175]: the IC50 is 0.072 µM.

As for `COc1ccc(CCC(=O)O)cc1-c1cnc(N2CC(OC)C2)nc1CN1C(=O)O[C@H](c2cc(C(F)(F)F)cc(C(F)(F)F)c2)[C@@H]1C` [Example 176], the IC50 worked out at 0.415 µM.

For the compound `C[C@H]1[C@@H](c2cc(C(F)(F)F)cc(C(F)(F)F)c2)OC(=O)N1Cc1nc(N2CC(F)(F)C2)ncc1-c1cc([C@H]2CC[C@H](C(=O)O)CC2)ccc1Cl` [Example 177], the IC50 was 0.019 µM.

In the case of `Cc1cc(C(=O)O)ccc1-c1ccc(C)c(-c2cnc(N3CC(F)(F)C3)nc2CN2C(=O)O[C@H](c3cc(C(F)(F)F)cc(C(F)(F)F)c3)[C@@H]2C)c1` [Example 178], the IC50 was 0.006 µM.

Consider `COc1cc(F)c(-c2cnc(C(=O)O)cc2C)cc1-c1cnc(N2CC(F)(F)C2)nc1CN1C(=O)O[C@H](c2cc(C(F)(F)F)cc(C(F)(F)F)c2)[C@@H]1C` [Example 183], for which the IC50 is 0.014 µM.

As for `Cc1cc(C(=O)O)ccc1-c1cc(-c2cnc(N3CC(F)(F)C3)nc2CN2C(=O)O[C@H](c3cc(C(F)(F)F)cc(C(F)(F)F)c3)[C@@H]2C)ccc1F` [Example 184, 5′-[4-({(4S,5R)-5-[3,5-bis(trifluoromethyl)phenyl]-4-methyl-2-oxo-1,3-oxazolidin-3-yl}methyl)-2-(3,3-difluoroazetidin-1-yl)pyrimidin-5-yl]-2′-fluoro-2-methylbiphenyl-4-carboxylic acid], the IC50 was found to be 0.012 µM.

On to `COc1ccc([C@H]2CC[C@H](C(=O)O)CC2)cc1-c1cnc(N2CC(F)C2)nc1CN1C(=O)O[C@H](c2cc(C(F)(F)F)cc(C(F)(F)F)c2)[C@@H]1C` [Example 185], for which the IC50 was determined as 0.012 µM.

`COc1ccc([C@H]2CC[C@H](C(=O)O)CC2)cc1-c1cnc(N2CC(OC)C2)nc1CN1C(=O)O[C@H](c2cc(C(F)(F)F)cc(C(F)(F)F)c2)[C@@H]1C` [Example 186]: the IC50 worked out at 0.137 µM.

On to `COc1c(F)cc(-n2ncc(C(=O)O)c2C(F)(F)F)cc1-c1cnc(N2CC(F)(F)C2)nc1CN1C(=O)O[C@H](c2cc(C(F)(F)F)cc(C(F)(F)F)c2)[C@@H]1C` [Example 187], for which the IC50 stood at 0.004 µM.

Take `COc1c(F)cc(-c2ncc(C(=O)O)cc2Cl)cc1-c1cnc(N2CC(F)(F)C2)nc1CN1C(=O)O[C@H](c2cc(C(F)(F)F)cc(C(F)(F)F)c2)[C@@H]1C` [Example 188]: the half-inhibitory concentration (IC50) was 0.018 µM.

Regarding `COc1cc(F)c(-c2ncc(C(=O)O)cc2Cl)cc1-c1cnc(N2CC(F)(F)C2)nc1CN1C(=O)O[C@H](c2cc(C(F)(F)F)cc(C(F)(F)F)c2)[C@@H]1C` [Example 189], the 50% inhibitory concentration (IC50) worked out at 0.005 µM.

Regarding `COc1cc(F)c(-c2cc(C(F)(F)F)c(C(=O)O)cn2)cc1-c1cnc(N2CC(F)(F)C2)nc1CN1C(=O)O[C@H](c2cc(C(F)(F)F)cc(C(F)(F)F)c2)[C@@H]1C` [Example 190], the 50% inhibitory concentration (IC50) was found to be 0.146 µM.

With `COc1ccc(-n2ncc(C(=O)O)c2C(F)(F)F)cc1-c1cnc(N2CC(F)(F)C2)nc1CN1C(=O)O[C@H](c2cc(C(F)(F)F)cc(C(F)(F)F)c2)[C@@H]1C` [Example 191], the 50% inhibitory concentration (IC50) worked out at 0.009 µM.

For `COc1ccc(CCC(=O)N2CCC2)cc1-c1cnc(N2CCC2)nc1CN1C(=O)O[C@H](c2cc(C(F)(F)F)cc(C(F)(F)F)c2)[C@@H]1C` [Example 193], the half-maximal inhibitory concentration (IC50) worked out at 0.105 µM.

On to `COc1ccc([C@H]2CC[C@H](C(=O)OC)CC2)cc1-c1ccc(N2CCC2)nc1CN1C(=O)O[C@H](c2cccc(C(F)(F)F)c2)[C@@H]1C` [Example 194], for which the concentration for half-maximal inhibition (IC50) was found to be 0.145 µM.

For the compound `COC(=O)CC(C)(C)c1ccc(OC)c(-c2ccc(N3CCC3)nc2CN2C(=O)O[C@H](c3cccc(C(F)(F)F)c3)[C@@H]2C)c1` [Example 195], the half-inhibitory concentration (IC50) turned out to be 0.044 µM.

Consider `COc1ccc(CC(C)(C)C(=O)OC(C)(C)C)cc1-c1ccc(N2CCC2)nc1CN1C(=O)O[C@H](c2cccc(C(F)(F)F)c2)[C@@H]1C` [Example 196], for which the concentration for half-maximal inhibition (IC50) worked out at 0.381 µM.

Consider `CCOC(=O)CCc1ccc(OC)c(-c2ccc(N3CCC3)nc2CN2C(=O)O[C@H](c3cccc(C(F)(F)F)c3)[C@@H]2C)c1` [Example 197], for which the IC50 came out at 0.059 µM.
